Measured values from PMC8222276 (Communications Biology, 2021).

Key:
Type in all cases: cell-based
[1] = target: T1, CGRP receptor (CLR-RAMP1) in human cardiomyocytes (HCMs) (Homo sapiens, UniProt O60894+Q16602); assay: ERK1/2 phosphorylation in HCMs
T1 construct: primary human cardiomyocytes (HCMs) since these cells only expressed CLR and RAMP1; host or cells: primary human cardiomyocytes (HCMs)
Method: (§1) Data are analysed using a three-parameter non-linear regression curve or the operational model of receptor agonism. g, h Signalling bias plots were calculated as ∆Log(τ/KA) (g) or ∆∆Log(τ/KA) (h) for each agonist and for each signalling pathway. […] All data represent mean ± SEM for n repeats.
(§2) Primary cells were grown in 6 well plates, on the day of the experiment media was replaced with serum free media 4 h prior to cell harvesting. Tyrpsin-EDTA was used to dissociate the cells and they were collected by centrifugation, counted and re-suspended HBSS/BSA (0.1%). Ligands were also diluted in HBSS/BSA. Cells were then plated on 384 well plates in 8 μl aliquots at a density of 20,000 cells/well. Next, ligands were added (4 μl) for 5 min stimulation at room temperature. Cells were then lysed as per to the manufacturer’s instructions with 4 μl of lysis buffer (Cisbio phosphor-ERK1/2 cellular assay kit, Invitrogen, UK) for 30 min shaking at room temperature. The 2 specific antibodies; were pre-mixed in a 1:1 ratio. 4 μl of this was added to each well and the plate incubated for a further 2 h.
(§3) All sample sizes were determined, and data analysed, in accordance with the guidelines described by Curtis M et al.[65]. All experiments were appropriately controlled using ‘system pathway’ agonists. If any of these pathway controls generated inappropriate responses, then the entire data set was removed from analysis. […] Data analysis for cAMP accumulation, Ca^2+i mobilisation, NO accumulation, pERK1/2 activation, and cell proliferation assays were performed in GraphPad Prism 8.4 (GraphPad Software, San Diego). Data were fitted to obtain concentration–response curves using either the three-parameter logistic equation using to obtain values of Emax and pEC50 or the operational model of agonism. Statistical differences were analysed using one-way ANOVA followed by Dunnett’s post-hoc (for comparisons amongst more than two groups) or unpaired Student’s t test with Welch’s correction (for comparison between two groups). To account for the day-to-day variation experienced from the cultured cells, we used the maximal level of cAMP accumulation from cells in response to 100 μM forskolin stimulation was used as a reference, 10 μM ionomycin for Ca^2+i assays, 10 μM phorbol 12-myristate 13-acetate (PMA) for pERK1/2 activation, 10 μM acetylcholine for NO production and 10 μM VEGF for cell proliferation. […] Where appropriate the operational model for receptor agonism[27] was used to obtain efficacy (τ) and equilibrium disassociation constant (KA) values. In both cases, this normalisation removes the variation due to differences in days but retains the variance for control values. The means of individual experiments were combined to generate the curves shown. Having obtained values for τ and KA these were then used to quantify signalling bias as the change in Log(τ/KA)[19],[28]. Error for this composite measure was propagated by applying Eq. 1.1 PooledSEM=(SEMA)^2+(SEMB)^2 Where, SEMA and SEMB are the standard error of measurement A and B.

[2] = target: T1, CGRP receptor (CLR-RAMP1) in human cardiomyocytes (HCMs); assay: mobilisation of Ca2+i in HCMs
Method: as §1
All cell lines were plated at 20,000 cells/well on 96-well black clear-bottom plates (Costar, UK) 24 h before the experiment. […] Cells were then washed twice with calcium-free HBSS, then were left in 100 μl calcium-free HBSS for the duration of the assay. In conditions where Gαq/11/14 signalling is inhibited, cells were pre-treated with 100 nM YM-254890 (Alpha Laboratories, UK) (30 min)[22]. All assays were performed using the BD Pathway 855 Bioimaging Systems (BD Biosciences, UK), which dispenses ligands (20 μl) and reads immediately for 2 min. Data was normalised to the response seen with 10 μM Ionomycin.
as §3

[3] = target: T2, CGRP receptor (CLR-RAMP1) in RAMP1-HUVECs (Homo sapiens, UniProt O60894+Q16602); assay: ERK1/2 phosphorylation in RAMP1-HUVECs
T2 construct: biased agonism at the endogenous CLR in a physiological system; the open reading frame of RAMP1 into our HUVEC∆RAMP2 cell line; host or cells: HUVEC-∆RAMP2 (CRISPR-Cas9 RAMP2 knockout pool), lentiviral transduction, blasticidin selection
Method: (§4) Data are analysed using a three-parameter non-linear regression curve or the operational model of receptor agonism. g–h Signalling bias plots were calculated as ∆Log(τ/KA) (g) or ∆∆Log(τ/KA) (h) for each agonist and for each signalling pathway. […] All data represent mean ± SEM for n repeats.
as §2
All sample sizes were determined, and data analysed, in accordance with the guidelines described by Curtis M et al.[65]. All experiments were appropriately controlled using ‘system pathway’ agonists. If any of these pathway controls generated inappropriate responses, then the entire data set was removed from analysis.

[4] = target: T2, CGRP receptor (CLR-RAMP1) in RAMP1-HUVECs; assay: mobilisation of Ca2+i in RAMP1-HUVECs
Method: as §4
All cell lines were plated at 20,000 cells/well on 96-well black clear-bottom plates (Costar, UK) 24 h before the experiment. […] Cells were then washed twice with calcium-free HBSS, then were left in 100 μl calcium-free HBSS for the duration of the assay. […] Data was normalised to the response seen with 10 μM Ionomycin.
All sample sizes were determined, and data analysed, in accordance with the guidelines described by Curtis M et al.[65]. All experiments were appropriately controlled using ‘system pathway’ agonists. If any of these pathway controls generated inappropriate responses, then the entire data set was removed from analysis. […] Data analysis for cAMP accumulation, Ca^2+i mobilisation, NO accumulation, pERK1/2 activation, and cell proliferation assays were performed in GraphPad Prism 8.4 (GraphPad Software, San Diego). Data were fitted to obtain concentration–response curves using either the three-parameter logistic equation using to obtain values of Emax and pEC50 or the operational model of agonism. Statistical differences were analysed using one-way ANOVA followed by Dunnett’s post-hoc (for comparisons amongst more than two groups) or unpaired Student’s t test with Welch’s correction (for comparison between two groups).

[5] = pERK1/2, HCM, operational model, mean ± SEM
[6] = Ca2+i, HCM, operational model, mean ± SEM
[7] = pERK1/2, RAMP1-HUVEC, operational model, mean ± SEM
[8] = Ca2+i, RAMP1-HUVEC, operational model, mean ± SEM

T1 sequence (Q16602 23-461): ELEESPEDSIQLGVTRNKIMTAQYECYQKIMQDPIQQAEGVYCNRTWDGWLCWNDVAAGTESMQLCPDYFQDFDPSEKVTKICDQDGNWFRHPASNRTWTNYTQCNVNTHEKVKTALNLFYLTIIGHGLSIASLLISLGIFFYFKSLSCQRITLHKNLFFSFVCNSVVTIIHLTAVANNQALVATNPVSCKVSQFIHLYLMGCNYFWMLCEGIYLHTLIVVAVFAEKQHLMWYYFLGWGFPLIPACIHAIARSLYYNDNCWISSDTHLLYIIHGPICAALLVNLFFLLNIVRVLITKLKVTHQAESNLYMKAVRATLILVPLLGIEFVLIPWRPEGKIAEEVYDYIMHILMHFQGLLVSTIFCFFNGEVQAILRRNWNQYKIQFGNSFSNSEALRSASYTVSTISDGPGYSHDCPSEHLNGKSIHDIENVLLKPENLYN
T1 sequence (O60894 27-148): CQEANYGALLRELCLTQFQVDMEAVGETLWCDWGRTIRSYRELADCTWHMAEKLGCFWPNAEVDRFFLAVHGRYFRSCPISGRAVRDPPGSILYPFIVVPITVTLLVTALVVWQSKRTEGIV
T2 sequence (Q16602 23-461): as the sequence (Q16602 23-461) above
T2 sequence (O60894 27-148): as the sequence (O60894 27-148) above

Row | Emax ([1]; pERK1/2, HCM, 5 min, relative to 10 μM PMA, mean ± SEM, read-out: Emax) [%] | Emax ([2]; Ca2+i, HCM, relative to 10 μM ionomycin, mean ± SEM, read-out: Emax) [%] | Emax ([3]; pERK1/2, RAMP1-HUVEC, 5 min, relative to 10 μM PMA, mean ± SEM, read-out: Emax) [%] | Emax ([4]; Ca2+i, RAMP1-HUVEC, relative to 10 μM ionomycin, mean ± SEM, read-out: Emax) [%] | SMILES | Emax [1] [%] | Transducer coefficient Log(τ/KA) ([1]; pERK1/2, HCM, calculated from Table S2) | logτ [1, 5] | pKA [1, 5] | Emax [2] [%] | Transducer coefficient Log(τ/KA) ([2]; Ca2+i, HCM, calculated from Table S2) | logτ [2, 6] | pKA [2, 6] | Emax [3] [%] | Transducer coefficient Log(τ/KA) ([3]; pERK1/2, RAMP1-HUVEC, calculated from Table S2) | logτ [3, 7] | pKA [3, 7] | Emax [4] [%] | Transducer coefficient Log(τ/KA) ([4]; Ca2+i, RAMP1-HUVEC, calculated from Table S2) | logτ [4, 8] | pKA [4, 8]
1 | – | – | – | – | CSCC[C@H](NC(=O)[C@H](CC(C)C)NC(=O)[C@H](CCC(N)=O)NC(=O)[C@H](Cc1c[nH]c2ccccc12)NC(=O)[C@H](CC(C)C)NC(=O)[C@H](CCCNC(=N)N)NC(=O)[C@H](Cc1c[nH]cn1)NC(=O)[C@H](CO)NC(=O)[C@H](CC(C)C)NC(=O)[C@H](CC(N)=O)NC(=O)[C@H](CCC(N)=O)NC(=O)[C@@H](NC(=O)[C@H](CCC(N)=O)NC(=O)[C@@H]1CSSC[C@H](NC(=O)CNC(=O)[C@@H](NC(=O)[C@H](CCCNC(=N)N)NC(=O)[C@H](CC(C)C)NC(=O)[C@H](CC(C)C)NC(=O)[C@H](CCC(N)=O)NC(=O)[C@H](C)NC(=O)[C@H](CCC(N)=O)NC(=O)[C@@H](N)[C@@H](C)O)C(C)C)C(=O)N[C@@H](C(C)C)C(=O)N[C@@H](CC(C)C)C(=O)NCC(=O)N[C@@H]([C@@H](C)O)C(=O)N1)C(C)C)C(=O)NCC(=O)N1CCC[C@H]1C(=O)N[C@@H](C)C(=O)NCC(=O)N[C@@H](CCCNC(=N)N)C(=O)N[C@@H](CCC(N)=O)C(=O)N[C@@H](CC(=O)O)C(=O)N[C@@H](CO)C(=O)N[C@@H](C)C(=O)N1CCC[C@H]1C(=O)N[C@H](C(=O)N[C@@H](CC(=O)O)C(=O)N1CCC[C@H]1C(=O)N[C@@H](CO)C(=O)N[C@@H](CO)C(=O)N1CCC[C@H]1C(=O)N[C@@H](Cc1c[nH]cn1)C(=O)N[C@@H](CO)C(=O)N[C@@H](Cc1ccc(O)cc1)C(N)=O)C(C)C [AM2, adrenomedullin 2] | 40.4 ± 4.17 | 5.32±0.20 | -0.20±0.08 | 5.52±0.18 | 36.5 ± 2.31 | 7.61±0.35 | -0.30±0.05 | 7.91±0.35 | 45.4 ± 2.89 | 6.50±0.15 | -0.06±0.05 | 6.56±0.14 | 41 ± 2.26 | 5.46±0.19 | -0.18±0.06 | 5.64±0.18
2 | 40.1 ± 2.02 | 58.12 ± 0.15 | 47.6 ± 1.48 | 44.1 ± 1.42 | CC[C@H](C)[C@H](NC(=O)[C@H](CCC(N)=O)NC(=O)[C@H](Cc1c[nH]cn1)NC(=O)[C@H](C)NC(=O)[C@H](CC(C)C)NC(=O)[C@H](CCCCN)NC(=O)[C@H](CCC(N)=O)NC(=O)[C@@H](NC(=O)[C@@H](NC(=O)[C@@H]1CSSC[C@H](NC(=O)CNC(=O)[C@H](Cc2ccccc2)NC(=O)[C@H](CO)NC(=O)[C@H](CCCNC(=N)N)NC(=O)[C@H](CC(C)C)NC(=O)CNC(=O)[C@H](CCC(N)=O)NC(=O)[C@H](Cc2ccccc2)NC(=O)[C@H](CC(N)=O)NC(=O)[C@H](CC(N)=O)NC(=O)[C@H](CCSC)NC(=O)[C@H](CO)NC(=O)[C@H](CCC(N)=O)NC(=O)[C@H](CCCNC(=N)N)NC(=O)[C@@H](N)Cc2ccc(O)cc2)C(=O)N[C@@H](CCCNC(=N)N)C(=O)N[C@@H](Cc2ccccc2)C(=O)NCC(=O)N[C@@H]([C@@H](C)O)C(=O)N1)[C@@H](C)O)C(C)C)C(=O)N[C@@H](Cc1ccc(O)cc1)C(=O)N[C@@H](CCC(N)=O)C(=O)N[C@@H](Cc1ccccc1)C(=O)N[C@H](C(=O)N[C@@H](CC(=O)O)C(=O)N[C@@H](CCCCN)C(=O)N[C@@H](CC(=O)O)C(=O)N[C@@H](CCCCN)C(=O)N[C@@H](CC(=O)O)C(=O)N[C@@H](CC(N)=O)C(=O)N[C@H](C(=O)N[C@@H](C)C(=O)N1CCC[C@H]1C(=O)N[C@@H](CCCNC(=N)N)C(=O)N[C@@H](CO)C(=O)N[C@@H](CCCCN)C(=O)N[C@H](C(=O)N[C@@H](CO)C(=O)N1CCC[C@H]1C(=O)N[C@@H](CCC(N)=O)C(=O)NCC(=O)N[C@@H](Cc1ccc(O)cc1)C(N)=O)[C@@H](C)CC)C(C)C)[C@@H](C)O [AM, adrenomedullin] | – | – | – | – | – | – | – | – | – | – | – | – | – | – | – | –
